# From article doi:10.1101/2021.03.27.437323v2 (biorxiv, 2021)
# Molecular target: SARS-CoV-2 main protease (M^pro; NSP5; 3CL M^pro) (Severe acute respiratory syndrome coronavirus 2, UniProt P0DTD1)
# Test: biochemical
# Conditions: read-out: % Residual activity at 20 µM
row,Structure (SMILES),remaining activity at 20 µM [%]
1,Cc1ccccc1CC(=O)NC(Cc1ccccc1)c1nc2ccccc2[nH]1 (stereo not drawn) [MCULE-2322094178],83
2,COc1ccc(-c2[nH]ncc2CNCc2ccccc2C)cc1 [MCULE-5715268546],83
3,O=C(NC(Cc1ccccc1)c1nc2ccccc2[nH]1)c1cccc(F)c1 (stereo not drawn) [MCULE-6499664919],83
